Experimental data as given in publication PMC10426190 (Breast Cancer Research : BCR, 2023).
pIC50: −log10 of the molar value. Where two headings read alike, the source gives them in different places. Blank lines part the entries; values can stand above or below the compound they belong to.

Legend:
[1] = parameters: method as in PMID 30018387; settings: cited from earlier work
[2] = test system: MCF-7 subcutaneous tumors; test: MCF-7 subcutaneous xenograft, combination with Palbociclib; assay type: in vivo, mouse; settings: MCF-7 sc, Palbociclib 40 mg/kg monotherapy
Experimental: Female Balb/c nude mice were used for MCF-7 and T47D tumor subcutaneous xenograft studies. At least one day before tumor cell implantation, estrogen pellets (0.18 mg, 17β-Estradiol, 60-day release, Innovative Research of America, Sarasota, FL, USA) were implanted subcutaneously. Each mouse was subcutaneously injected with 1 × 10^7 MCF-7 (ECACC) or T47D cells in the right flank, and tumor growth was monitored. The long diameter (a) and the short diameter (b) of the tumor were measured using a caliper, and the tumor volume was calculated using the following formula: V = 0.5 × a × b^2. […] Tumor volumes were evaluated twice per week. Treatment tolerability was assessed by body weight measurements and frequent observation for clinical signs of treatment-related adverse effects.
(§1) Statistical and graphical presentations were performed using IDBS XLfit and GraphPad Prism 9. For cell proliferation assays, the IC50 was calculated by fitting a dose–response curve using a nonlinear regression model with a log(inhibitor) vs response curve fit. […] P-values < 0.05 were considered statistically significant.
Cell viability was measured using Cell TiterGlo assay. […] The result of one representative assay from three similar independent experiments is shown.

ERα [3] = biological target: T1, ERα (Homo sapiens, UniProt P03372); test: ERα degradation assay, In-Cell Western, MCF-7 WT; assay type: cell-based; parameters: MCF-7 wild type and Y537S mutant cells were seeded at a density of 5000 cells per well; host or cells: MCF-7; settings: 24 h
T1 sequence (P03372 1-595): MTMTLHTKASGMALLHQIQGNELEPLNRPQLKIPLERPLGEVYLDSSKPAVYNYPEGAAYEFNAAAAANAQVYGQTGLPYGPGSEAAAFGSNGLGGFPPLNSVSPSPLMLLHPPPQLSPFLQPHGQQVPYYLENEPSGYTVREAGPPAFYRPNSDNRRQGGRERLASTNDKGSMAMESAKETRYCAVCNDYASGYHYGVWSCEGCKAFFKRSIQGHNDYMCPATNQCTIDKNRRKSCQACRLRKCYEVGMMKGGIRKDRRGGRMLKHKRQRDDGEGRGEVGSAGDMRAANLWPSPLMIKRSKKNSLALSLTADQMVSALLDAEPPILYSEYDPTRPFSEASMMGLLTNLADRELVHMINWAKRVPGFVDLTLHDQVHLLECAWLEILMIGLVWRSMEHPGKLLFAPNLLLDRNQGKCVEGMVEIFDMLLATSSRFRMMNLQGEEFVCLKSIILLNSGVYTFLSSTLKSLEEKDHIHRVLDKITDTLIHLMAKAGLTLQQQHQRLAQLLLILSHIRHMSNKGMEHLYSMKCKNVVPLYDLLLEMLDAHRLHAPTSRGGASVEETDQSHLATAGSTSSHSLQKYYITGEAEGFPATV
Experimental: MCF-7 wild type and Y537S mutant cells were seeded at a density of 5000 cells per well into flat clear bottom tissue cultured-treated 384-well plates (Greiner) in culture media and after overnight incubation cells were treated with compounds for 24 h. Then plates were fixed with 4% formaldehyde, permeabilized with ice-cold methanol, and blocked with Odyssey Blocking Buffer (LI-COR). The fixed cells were incubated with rabbit anti- ERα antibody (CST#8644S) and mouse anti-GAPDH antibody (Abcam #ab8245), washed and stained with IRDye 800 Goat anti-Rabbit IgG (Licor#926-32211) and IRDye 680 Goat anti-Mouse IgG (Licor#926-68070). ERα levels were quantitated using Sapphire RGBNIR (Azure), the acumen eX3 imaging system. […] IC50 and Emax were analyzed with IDBS XLfit.
(§2) MCF7 cells were seeded in a 384-well plate and linear-dilution compounds were administrated in duplicate for each treatment. After incubation for 24 h, Cells in the assay pate were treated as described in methods. ERα levels were quantified by immunofluorescence assay. […] Cells were dispended into 96-well plates and incubated for 24 h with compounds (100 nM) treatment. […] Cells were seeded in 384-well plates and treated with linear-dilution compounds for 7 days of incubation. Cell viability was assessed using CellTiter-Glo. Cell growth inhibition is presented as a percentage of CellTiterGlo activity relative to the vehicle control. […] Then cells in each well were collected and the targeting proteins in lysate supernatant were detected by WB
Cells were seeded at a density of 5,000 cells per well into 384-well plates and treated with linear-titration compounds in duplicate for 24 hours. ERα levels were quantified by immunofluorescence assay as described in the method. The detection signals were captured by Odyssey.

MCF-7 WT cells = test: Viability assay (CellTiter-Glo, 7 days), MCF-7 WT; assay type: cell-based, human
Experimental: (§3) Trypsinized cells were dispensed into 384-well plates in culture media and after overnight incubation cells were treated with compounds for 7 days. Cell viability was assessed using CellTiter-Glo (Promega) according to the manufacturer’s protocol and relative luminescence units (RLU) were measured using an Envision Multilabel Reader (Perkin Elmer). […] IC50 and Imax were analyzed with IDBS XLfit.
as §1

ERα [4] = biological target: T1, ERα; test: Maximal ERα degradation across ER-positive cell panel, In-cell Western, 100 nM; assay type: cell-based; settings: 24 h, EFM-19, CAMA-1, HCC1500, T47D, BT-474
Experimental: as §2

[5] = test system: ER + breast cancer cell lines; test: Proliferation assay across ER-positive cell panel; assay type: cell-based, human; settings: CAMA-1 and HCC1500, 7 days
Experimental: as §3
MCF7 cells were seeded in a 384-well plate and linear-dilution compounds were administrated in duplicate for each treatment. After incubation for 24 h, Cells in the assay pate were treated as described in methods. ERα levels were quantified by immunofluorescence assay. […] Data are given as mean ± SEM. b The maximal ERα degradation across an ER-positive cell panel was evaluated in an In-cell Western assay. Cells were dispended into 96-well plates and incubated for 24 h with compounds (100 nM) treatment. […] Cells were seeded in 384-well plates and treated with linear-dilution compounds for 7 days of incubation. Cell viability was assessed using CellTiter-Glo. Cell growth inhibition is presented as a percentage of CellTiterGlo activity relative to the vehicle control. […] WT (e) and ER. Y537S cells (f). […] Then cells in each well were collected and the targeting proteins in lysate supernatant were detected by WB

[6] = Brain distribution study in mice; settings: oral 10 mg/kg once a day (fulvestrant 250 mg/kg sc once per week), 24 h post last dose
Experimental: The blood and brain tissues were collected at 24 h post the last dose. […] All blood was collected in K2-EDTA tubes and plasma was obtained by centrifuging the blood at 3200 rpm for 10 min at 4 °C and the brain was rinsed with water and blotted to remove superficial meninges. Plasma and brain samples were stored at − 80 °C until LC–MS/MS analysis which was performed on an Acquity UPLC system (Waters, USA) coupled to an AB SCIEX Triple Quad 6500 + System.
Brain conc./plasma conc. was presented as a B/P ratio

[7] = test system: ER+ breast cancer, WT or mutant ESR1; parameters: method as in EMERALD (NCT03778931), ASCO, 2022; settings: ASCO, 2022, cited from earlier work
intracranial tumor = settings: cited from earlier work
uterine tissue = test: Assessment of uterotropic activity in juvenile rats; assay type: in vivo, rat; settings: juvenile SD rats, oral QD x 3 days; tamoxifen 60 mg/kg, SCR-6852 10 mg/kg; vs vehicle
Experimental: Twenty-four hours after the final dose, all animals were euthanized. Body weights and wet uterine weights were recorded for each animal. Fresh uterine tissue from each rat was fixed in 4% paraformaldehyde, dehydrated by HistoCore PEARL (Leica), and embedded by HistoCore Arcadia H + HistoCore Arcadia C (Leica). Sections were cut at 4 μm and stained with 0.1% toluidine blue O. The thickness of endometrial epithelium was measured using Leica Aperio CS2 with ImageScope × 64 program (Leica). The mean of five measurements per specimen was calculated.
MCF7 with hormone-deprived pre-treatment were administrated ER ligands or not present with 1 nM E2 stimulation for 24 h incubation in a 12-well plate. Total mRNA was isolated from treated cells and sequenced on an Illumina HiSeq X Ten platform. FPKM of each gene was calculated using Cufflinks and Differential expression genes analysis by using the DESeq (2012) R package. Four separate clusters were obtained. […] T47D EFM-19 and HCC1500 cells were grown in RPMI media supplemented with 10% charcoal-stripped FBS for 14 days and then treated with ER antagonist (1 μM) or DMSO in the presence E2 (1nM) stimulation for 24 h before RNA isolation and gene expression analysis as described in methods. […] Endometrial height was assessed from the basement membrane to the luminal border (scale bar in green lines: 200 μm), Arrows indicate the uterine epithelium (e).

breast cancer = test system: breast cancer; parameters: method as in PMID 28149048; settings: cited from earlier work
[8] = parameters: method as in PMID 26149830; settings: mice, 30 mg/kg, approximately 12 h ref 38; cited from earlier work

Compound: Nc1cc(C(F)(F)F)c(-c2cc(N3CCOCC3)nc(N3CCOCC3)n2)cn1 [Buparlisib]
B/P ratio [1]: > 1.5

Compound: CC(=O)c1c(C)c2cnc(Nc3ccc(N4CCNCC4)cn3)nc2n(C2CCCC2)c1=O [Palbociclib]
TGI [2]: 66.34%

DC50 (ERα [3]): 0.08 nM | ERα degradation assay Dmax [% Ful.] (ERα [3]): 97.83 % Ful. | ERα degradation assay Dmax [% Veh.] (ERα [3]): 66.81 % Veh. | pIC50 (MCF-7 WT cells): 9.54
Compound: CC1Cc2cc(B(O)O)ccc2C(c2c(F)cc(NC3CN(CCCF)C3)cc2F)N1CC1(F)CC1 (centres unmarked) [SCR-6515]
Viability assay Emax [% Ful.] (MCF-7 WT cells): 103.00 % Ful. | Viability assay Emax [% Veh.] (MCF-7 WT cells): 64.15 % Veh.

maximal ERα degradation rate across ER + cell lines (ERα [4]): less potency ERα degradation rate
Compound: C[C@@H]1Cc2c([nH]c3ccccc23)[C@@H](c2c(F)cc(/C=C/C(=O)O)cc2F)N1CC(C)(C)F [AZD9496]
maximal anti-proliferation rate [5]: lower maximal anti-proliferation rate

B/P ratio [6]: less than onefold
Compound: C[C@@H]1Cc2c(ccc3[nH]ncc23)[C@@H](c2ccc(NC3CN(CCCF)C3)cn2)N1CC(F)(F)F [AZD-9833]

Compound: CCNCCc1ccc(CN(CC)c2cc(OC)ccc2[C@@H]2CCc3cc(O)ccc3C2)cc1 [Elacestrant]
PFS rate at 12 months ([7]; ESR1 mutation population ref EMERALD (NCT03778931)): 26.76% | reduction of the risk of disease progression or death ([7]; all patients ref EMERALD (NCT03778931)): 30% | PFS rate at 12 months ([7]; overall population ref EMERALD (NCT03778931)): 22.32% | reduction of the risk of disease progression or death ([7]; patients with ESR1 mutation ref EMERALD (NCT03778931)): 45% | animals survived to the end of the study (intracranial tumor; day 54 ref 41): 43% | B/P ratio (intracranial tumor; intracranial tumor, according to reported data ref 41): about 0.6

B/P ratio [6]: less than onefold
Compound: C[C@@H]1Cc2c([nH]c3ccccc23)[C@@H](c2c(F)cc(NC3CN(CCCF)C3)cc2F)N1CC(F)(F)CO [GDC-9545]

Compound: CC/C(=C(\c1ccccc1)c1ccc(OCCN(C)C)cc1)c1ccccc1 [Tamoxifen]
endometrial epithelial thickness (uterine tissue): significantly increased | relative uterine wet weight (uterine tissue): significant increase | reduction of annual mortality rate (breast cancer): 31% | reduction of breast cancer recurrence (breast cancer): 50%

Compound: CCN1CCN(Cc2ccc(Nc3ncc(F)c(-c4cc(F)c5nc(C)n(C(C)C)c5c4)n3)nc2)CC1 [Abemaciclib]
target engagement ratio (unbound brain concentration to in vitro enzyme IC50) [8]: 3.3–14.3
